Here are results for 12 molecules from patent publication US20100056515A1, “BENZIMIDAZOLE COMPOUNDS” (priority 2006, published 2010).

Molecules are shown by their SMILES.

The target of one data set is T1, human CRF receptor (Homo sapiens, UniProt P34998).
T1 construct: expressed in transfected cells; host or cells: CHO cells (membrane fraction)
T1 sequence (P34998 24-415): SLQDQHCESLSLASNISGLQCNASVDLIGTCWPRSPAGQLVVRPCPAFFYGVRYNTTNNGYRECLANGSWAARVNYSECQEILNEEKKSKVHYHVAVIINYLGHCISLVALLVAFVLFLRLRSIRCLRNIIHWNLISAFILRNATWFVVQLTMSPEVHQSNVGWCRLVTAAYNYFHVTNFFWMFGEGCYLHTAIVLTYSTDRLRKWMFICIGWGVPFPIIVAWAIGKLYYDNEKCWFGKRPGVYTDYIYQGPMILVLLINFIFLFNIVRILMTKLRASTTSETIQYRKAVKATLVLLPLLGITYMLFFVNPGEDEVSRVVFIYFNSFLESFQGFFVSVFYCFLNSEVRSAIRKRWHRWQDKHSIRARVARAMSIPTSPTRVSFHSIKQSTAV
The experiment in a line: Measurement of CRF Binding Inhibitory Rate (receptor binding experiment with 125I-CRF). To be noted: human CRF receptor expressing CHO cellular membrane fraction; 50 pM ovine 125I-CRF; 0.05 nM to 10 μM of compound; room temperature 1.5 hr; read-out: IC50 values (CRF binding inhibition). As for the experimental part: Measurement of CRF Binding Inhibitory Rate
A receptor binding experiment was carried out using a human CRF receptor expressing CHO cellular membrane fraction and ovine CRF, [^125I]-tyr^0(^125I-CRF). 1000 nM of a test compound was incubated with 1 μg of human CRF receptor expressing CHO cellular membrane fraction and 50 pM of ^125I-CRF in a binding assay buffer (50 mM Tris-HCl, 5 mM EDTA, 10 mM MgCl2, 0.05% CHAPS, 0.1% BSA, 0.5 mM PMSF, 0.1 μg/mL pepstatin, 20 μg/mL leupeptin, pH 7.5). In addition, for measuring nonspecific binding (NSB), 0.1 μM unlabelled human Urocortin was incubated with 5 μg of human CRF receptor expressing CHO cellular membrane fraction and 50 pM of ^125I-CRF in a binding assay buffer. After a binding reaction was carried out at room temperature for 1.5 hr, the membrane was entrapped on a glass filter (UniFilter plate GF-C/Perkin Elmer) by suction filtration using a cell harvester (Perkin Elmer), and washed with ice-cooled 50 mM Tris-HCl (pH 7.5). After drying the glass filter, a liquid scintillation cocktail (Microscinti 0, Perkin Elmer) was added, and the radioactivity of ^125I-CRF remaining on a glass filter was measured using Topcount (Perkin Elmer).
(TB-SB)/(TB-NSB)×100 (SB: radioactivity when a compound is added, TB: maximum binding radioactivity, NSB: nonspecific binding radioactivity) were calculated to obtain binding inhibitory rates under the range of the presence from 0.05 nM to 10 μM of each compounds. The IC50 values were calculated by using GraphPad Prism software.

Regarding `CCC(CC)c1ccc(Cl)c2nc(Oc3c(Cl)cc(Cl)cc3C#N)n(C)c12` [Example 31, 3,5-Dichloro-2-{[4-chloro-7-(1-ethylpropyl)-1-methyl-1H-benzimidazol-2-yl]oxy}benzonitrile], the melting point (usually the temperature, or range, at which the solid turns liquid) is 155 to 156 °C. Further, the IC50 (usually the concentration needed to halve the response being measured) at human CRF receptor is < 1 µM.

On to `CCC(CC)c1ccc(Cl)c2nc(Oc3c(C)cc([S+](C)[O-])cc3Cl)n(C)c12` (stereo not drawn) [Example 37, 4-Chloro-2-[2-chloro-6-methyl-4-(methylsulfinyl)phenoxy]-7-(1-ethylpropyl)-1-methyl-1H-benzimidazole], for which the melting point was 182 to 184 °C. In addition, on human CRF receptor, the IC50 is < 1 µM.

Take `CCC(CC)c1ccc(OC)c2nc(Oc3ccc(OC(F)(F)F)cc3N(C)C)n(C)c12` [Example 30, 2-{[7-(1-Ethylpropyl)-4-methoxy-1-methyl-1H-benzimidazol-2-yl]oxy}-N,N-dimethyl-5-(trifluoromethoxy)aniline]: the melting point was 93 to 95 °C. In addition, the IC50 on human CRF receptor is < 1 µM.

On to `CCC(CO)c1ccc(Cl)c2nc(Oc3c(C)cc(Cl)cc3Cl)n(C)c12` (stereo not drawn) [Example 94, 2-[4-Chloro-2-(2,4-dichloro-6-methylphenoxy)-1-methyl-1H-benzimidazol-7-yl]butan-1-ol], for which the melting point was in the range of 208 to 209 °C. Also, the IC50 on human CRF receptor was < 1 µM.

Molecule `CCC(CC)c1ccc(Br)c2nc(Oc3c(C)cc(Cl)cc3Cl)n(C)c12` [Example 70, 4-Bromo-2-(2,4-dichloro-6-methylphenoxy)-7-(1-ethylpropyl)-1-methyl-1H-benzimidazole] displayed a melting point of 146 to 147 °C. Besides, the 50% inhibitory concentration (IC50) at human CRF receptor was < 1 µM.

On to `CCC(CC)c1ccc(Cl)c2nc(Oc3c(OC)cc(C)nc3N(C)C)n(C)c12` [Example 52, 3-{[4-Chloro-7-(1-ethylpropyl)-1-methyl-1H-benzimidazol-2-yl]oxy}-4-methoxy-N,N,6-trimethylpyridin-2-amine], for which the melting point lay within 202 to 203 °C. Moreover, at human CRF receptor, the concentration for half-maximal inhibition (IC50) is < 1 µM.

For `CCC(CC)c1ccc(Cl)c2nc(Oc3c(Cl)cc(Cl)cc3N3CCOCC3)n(C)c12` [Example 25, 4-Chloro-2-(2,4-dichloro-6-morpholin-4-ylphenoxy)-7-(1-ethylpropyl)-1-methyl-1H-benzimidazole], the melting point is 155 to 157 °C. Also, the IC50 at human CRF receptor is < 1 µM.

Consider `CCC(CC)c1ccc(Cl)c2nc(Oc3c(Cl)cc(OC(F)(F)F)cc3[S+](C)[O-])n(C)c12` (stereo not drawn) [Example 43, 4-Chloro-2-[2-chloro-6-(methylsulfinyl)-4-(trifluoromethoxy)phenoxy]-7-(1-ethylpropyl)-1-methyl-1H-benzimidazole], for which the melting point fell in the range of 150 to 151 °C. The half-inhibitory concentration (IC50) on human CRF receptor was < 1 µM.

As to `CCC(CC)c1ccc(OC)c2nc(Oc3ccc(OC(F)(F)F)cc3CN(C)C)n(C)c12` [Example 13, 1-[2-{[7-(1-Ethylpropyl)-4-methoxy-1-methyl-1H-benzimidazol-2-yl]oxy}-5-(trifluoromethoxy)phenyl]-N,N-dimethylmethanamine], the melting point fell in the range of 95 to 97 °C. On human CRF receptor, the concentration for half-maximal inhibition (IC50) was < 1 µM.

In the case of `CCC(CC)c1ccc(Cl)c2nc(Oc3c(Cl)cc(Cl)c4c3CN(C)C4)n(C)c12` [Example 55, 4-Chloro-2-[(5,7-dichloro-2-methyl-2,3-dihydro-1H-isoindol-4-yl)oxy]-7-(1-ethylpropyl)-1-methyl-1H-benzimidazole], the melting point was in the range of 148 to 149 °C. Besides, the IC50 at human CRF receptor is < 1 µM.

With `CCC(CC)c1ccc(OC)c2nc(Oc3c(Cl)cc(Cl)cc3CN3CCCC3C)n(C)c12.Cl` (stereo not drawn) [Example 80, 2-{2,4-Dichloro-6-[(2-methylpyrrolidin-1-yl)methyl]phenoxy}-7-(1-ethylpropyl)-4-methoxy-1-methyl-1H-benzimidazole], the melting point lay in the range of 171 to 173 °C. For the same molecule, the half-maximal inhibitory concentration (IC50) at human CRF receptor was < 1 µM.

In the case of `CCC(CC)c1ccc(OC)c2nc(Nc3ccc(Cl)cc3Cl)n(C)c12` [Example 20, N-(2,4-Dichlorophenyl)-7-(1-ethylpropyl)-4-methoxy-1-methyl-1H-benzimidazol-2-amine], the melting point was in the range of 198 to 200 °C. Besides, the IC50 on human CRF receptor is < 1 µM.
